We go through one compound from ChEMBL document CHEMBL5634174, “Biological evaluation of sulfonate and sulfate analogues of lithocholic acid: A bioisosterism-guided approach towards the discovery of potential sialyltransferase inhibitors for antimetastatic study” (Bioorg Med Chem Lett, 2024).

Activity calls are given as the source filed them. The rule behind the calls is not given here. Bounds are passed on as bounds.

In test [1] the target is T1, Sialyltransferase ST3Gal-I (Rattus norvegicus) (UniProt Q6H8N0).
T1 sequence (whole entry): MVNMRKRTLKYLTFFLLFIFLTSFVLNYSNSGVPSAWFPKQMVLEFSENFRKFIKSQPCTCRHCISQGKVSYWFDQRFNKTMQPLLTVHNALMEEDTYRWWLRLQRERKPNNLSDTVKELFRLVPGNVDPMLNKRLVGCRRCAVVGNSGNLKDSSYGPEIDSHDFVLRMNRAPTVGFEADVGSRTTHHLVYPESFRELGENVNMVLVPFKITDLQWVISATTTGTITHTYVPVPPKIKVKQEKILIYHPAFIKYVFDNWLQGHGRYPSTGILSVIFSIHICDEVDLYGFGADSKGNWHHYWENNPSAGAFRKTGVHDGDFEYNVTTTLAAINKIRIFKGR
Briefly: Inhibition of rat ST3GAL1 at 1000 uM by UPLC-based assay relative to control.

A short description of test [2]: Selectivity index, ratio of IC50 for inhibition of rat ST3GAL1 to IC50 for inhibition of human ST6GAL1.
In test [3] the test system is MDA-MB-231. Put plainly: Inhibition of cell invasion in human MDA-MB-231 cells at 60 uM. It counts as functional, cell-based.
Test [4] has as its system MDA-MB-231. Put plainly: Inhibition of cell invasion in human MDA-MB-231 cells assessed as reduction in cell adhesion to collagen IV at 60 uM incubated for 48 hrs. It counts as functional, cell-based.
Test [5] relates to MDA-MB-231. Briefly: Inhibition of cell invasion in human MDA-MB-231 cells assessed as reduction in cell adhesion at 60 uM after 48 hrs. The class given is functional, cell-based.
The target of test [6] is T2, Integrin beta-3 (Homo sapiens) (UniProt P05106).
T2 sequence (whole entry): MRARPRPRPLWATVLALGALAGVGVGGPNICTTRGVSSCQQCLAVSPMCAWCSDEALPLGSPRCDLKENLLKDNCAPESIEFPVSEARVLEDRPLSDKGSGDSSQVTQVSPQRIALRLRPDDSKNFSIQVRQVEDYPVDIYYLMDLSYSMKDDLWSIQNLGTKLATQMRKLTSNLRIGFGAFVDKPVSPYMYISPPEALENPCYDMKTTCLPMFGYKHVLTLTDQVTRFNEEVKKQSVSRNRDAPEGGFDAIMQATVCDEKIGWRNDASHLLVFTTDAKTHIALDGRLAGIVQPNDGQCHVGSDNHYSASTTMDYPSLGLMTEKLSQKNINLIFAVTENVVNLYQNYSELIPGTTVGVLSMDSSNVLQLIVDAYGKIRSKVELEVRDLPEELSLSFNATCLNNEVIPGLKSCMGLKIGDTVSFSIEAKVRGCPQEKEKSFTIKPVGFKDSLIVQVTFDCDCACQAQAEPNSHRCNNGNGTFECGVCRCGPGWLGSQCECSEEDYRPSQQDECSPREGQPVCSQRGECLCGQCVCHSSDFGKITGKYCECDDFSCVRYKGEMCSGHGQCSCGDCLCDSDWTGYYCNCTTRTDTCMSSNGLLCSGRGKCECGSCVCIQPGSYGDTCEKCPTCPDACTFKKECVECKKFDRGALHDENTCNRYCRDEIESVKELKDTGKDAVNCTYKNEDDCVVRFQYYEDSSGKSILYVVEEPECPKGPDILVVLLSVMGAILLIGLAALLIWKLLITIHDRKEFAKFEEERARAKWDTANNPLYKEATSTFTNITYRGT
Put plainly: Inhibition of integrin beta-3 in human MDA-MB-231 cells assessed as decrease in sialylation level incubated for 48 hrs by Western blot analysis. It counts as cell-based. The following applies: dose 20-80 µM.

Test [7] has as its target Integrin beta-4 (Homo sapiens) (UniProt P16144). Briefly: Inhibition of integrin beta-4 in human MDA-MB-231 cells assessed as decrease in sialylation level incubated for 48 hrs by Western blot analysis. The class given is cell-based. The conditions noted are these: dose 20-80 µM.
Test [8] addresses Focal adhesion kinase 1 (Homo sapiens) (UniProt Q05397). Briefly: Inhibition of FAK phosphorylation at Y576/577 residue in human MDA-MB-231 cells incubated for 2 hrs by Western blot analysis. It counts as cell-based. The following applies: dose 20-80 µM.

Chain of Integrin beta-4 (Homo sapiens) (P16144 whole entry): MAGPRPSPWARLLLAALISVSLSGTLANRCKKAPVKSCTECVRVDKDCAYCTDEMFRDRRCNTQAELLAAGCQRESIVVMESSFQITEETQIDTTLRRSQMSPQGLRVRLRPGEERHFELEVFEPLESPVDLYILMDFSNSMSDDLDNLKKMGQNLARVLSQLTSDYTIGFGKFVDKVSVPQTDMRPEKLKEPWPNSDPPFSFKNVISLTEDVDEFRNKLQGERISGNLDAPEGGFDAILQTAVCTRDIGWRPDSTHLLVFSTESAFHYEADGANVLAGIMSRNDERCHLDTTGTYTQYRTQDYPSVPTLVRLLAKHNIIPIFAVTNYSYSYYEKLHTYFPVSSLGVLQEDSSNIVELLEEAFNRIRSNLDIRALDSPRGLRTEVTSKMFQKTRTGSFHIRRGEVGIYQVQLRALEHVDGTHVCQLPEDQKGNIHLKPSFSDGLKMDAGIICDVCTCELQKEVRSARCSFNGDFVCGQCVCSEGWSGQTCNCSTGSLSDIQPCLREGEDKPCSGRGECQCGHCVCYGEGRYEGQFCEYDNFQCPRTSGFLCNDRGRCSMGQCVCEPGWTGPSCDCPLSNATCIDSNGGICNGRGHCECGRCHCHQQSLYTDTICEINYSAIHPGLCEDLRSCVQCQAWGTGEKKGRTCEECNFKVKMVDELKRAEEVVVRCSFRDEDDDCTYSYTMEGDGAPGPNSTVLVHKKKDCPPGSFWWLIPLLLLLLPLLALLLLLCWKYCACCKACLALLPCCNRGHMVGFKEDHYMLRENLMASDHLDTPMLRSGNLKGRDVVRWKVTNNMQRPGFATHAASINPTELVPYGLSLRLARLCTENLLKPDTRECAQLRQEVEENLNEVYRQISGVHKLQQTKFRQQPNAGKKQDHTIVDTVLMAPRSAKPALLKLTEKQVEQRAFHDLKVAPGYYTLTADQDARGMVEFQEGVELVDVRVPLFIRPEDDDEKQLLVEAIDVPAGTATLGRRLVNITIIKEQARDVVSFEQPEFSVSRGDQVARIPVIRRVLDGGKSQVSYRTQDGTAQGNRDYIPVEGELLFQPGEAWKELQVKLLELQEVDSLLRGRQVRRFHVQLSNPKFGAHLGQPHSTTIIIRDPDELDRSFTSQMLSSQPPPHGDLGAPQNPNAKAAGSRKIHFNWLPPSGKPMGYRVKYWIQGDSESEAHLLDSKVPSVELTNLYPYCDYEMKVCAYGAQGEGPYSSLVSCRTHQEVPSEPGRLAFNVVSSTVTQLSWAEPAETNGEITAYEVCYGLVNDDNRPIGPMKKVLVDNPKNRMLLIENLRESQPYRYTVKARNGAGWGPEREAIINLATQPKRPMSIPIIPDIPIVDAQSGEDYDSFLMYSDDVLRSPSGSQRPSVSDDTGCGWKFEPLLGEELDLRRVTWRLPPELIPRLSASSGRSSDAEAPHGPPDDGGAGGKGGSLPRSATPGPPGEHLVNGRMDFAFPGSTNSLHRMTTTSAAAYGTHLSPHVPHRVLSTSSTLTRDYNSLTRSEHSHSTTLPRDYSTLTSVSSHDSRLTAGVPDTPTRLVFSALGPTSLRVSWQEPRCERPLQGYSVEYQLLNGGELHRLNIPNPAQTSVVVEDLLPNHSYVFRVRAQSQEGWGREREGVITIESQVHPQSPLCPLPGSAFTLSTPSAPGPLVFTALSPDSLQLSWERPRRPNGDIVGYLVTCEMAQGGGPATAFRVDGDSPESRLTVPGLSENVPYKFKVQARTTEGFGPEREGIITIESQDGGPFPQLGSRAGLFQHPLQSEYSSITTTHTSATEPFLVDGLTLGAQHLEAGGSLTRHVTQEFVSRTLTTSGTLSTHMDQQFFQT
Chain of Focal adhesion kinase 1 (Homo sapiens) (Q05397 2-1052 limits assumed): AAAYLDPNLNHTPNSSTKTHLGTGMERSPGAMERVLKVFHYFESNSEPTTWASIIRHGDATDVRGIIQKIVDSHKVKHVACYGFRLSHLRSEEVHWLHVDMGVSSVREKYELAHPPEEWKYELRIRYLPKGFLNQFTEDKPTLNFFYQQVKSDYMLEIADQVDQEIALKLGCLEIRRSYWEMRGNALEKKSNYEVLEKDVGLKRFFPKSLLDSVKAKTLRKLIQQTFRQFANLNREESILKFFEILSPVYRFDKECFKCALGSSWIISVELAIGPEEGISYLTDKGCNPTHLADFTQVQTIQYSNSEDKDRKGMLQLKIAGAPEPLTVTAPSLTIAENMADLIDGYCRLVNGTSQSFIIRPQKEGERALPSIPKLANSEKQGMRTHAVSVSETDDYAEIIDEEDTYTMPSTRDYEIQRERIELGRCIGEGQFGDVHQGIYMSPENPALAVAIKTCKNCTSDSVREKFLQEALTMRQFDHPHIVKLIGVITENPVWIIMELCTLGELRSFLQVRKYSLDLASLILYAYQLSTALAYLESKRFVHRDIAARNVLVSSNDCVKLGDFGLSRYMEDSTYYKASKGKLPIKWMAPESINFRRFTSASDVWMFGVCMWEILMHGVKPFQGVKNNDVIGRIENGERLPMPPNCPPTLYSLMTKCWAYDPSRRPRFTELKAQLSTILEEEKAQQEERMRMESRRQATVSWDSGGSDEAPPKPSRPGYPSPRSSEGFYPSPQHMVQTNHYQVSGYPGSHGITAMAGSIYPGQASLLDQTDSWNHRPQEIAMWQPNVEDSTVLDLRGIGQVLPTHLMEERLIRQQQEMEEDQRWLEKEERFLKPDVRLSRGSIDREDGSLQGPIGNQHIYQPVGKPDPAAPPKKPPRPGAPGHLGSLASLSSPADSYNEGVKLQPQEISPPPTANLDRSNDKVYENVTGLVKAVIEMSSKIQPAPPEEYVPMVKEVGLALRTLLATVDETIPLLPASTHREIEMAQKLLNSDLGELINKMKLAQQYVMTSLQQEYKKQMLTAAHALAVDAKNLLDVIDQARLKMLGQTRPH

As to `C[C@H](CCCOS(=O)(=O)O)[C@H]1CC[C@H]2[C@@H]3CC[C@@H]4C[C@H](O)CC[C@]4(C)[C@H]3CC[C@]12C`, the inhibition in test [1] is 15%; in test [8], “Dose-Dependent Effect”. Besides, the Ratio IC50 in test [2] was over 60. Besides, the inhibition result in the test with MDA-MB-231 [3] and in the test on MDA-MB-231 [4] was “Active” in each case. In the test on MDA-MB-231 [5], the inhibition entry is “inactive”. The Activity result in test [6] and in test [7] was “Dose-Dependent Effect” each time.
